Data published in article PMC10208956, “Microbial peptides activate tumour-infiltrating lymphocytes in glioblastoma” (Nature, 2023).

Assays:
[1] = system: autologous glioblastoma cells; assay: T cell cytotoxicity assay of TCC88 against the autologous tumour cell line; type: cell-based, human; conditions: TCC88 stimulated with 2 µM peptide for 72 h; E:T 1:1 and 5:1; 24 h; duplicates; Fig. 3f
Excerpt: Fig. 3 Bacteria-derived and microbiota-derived peptides can stimulate TCC88 as well as the tumour antigen. a, Peptides with the highest predicted stimulatory scores were identified by searching various databases (see Methods). Numbers of unique 10-mer peptides within each database, synthesized peptides, TCC88 stimulatory peptides and the corresponding percentage of stimulatory peptides within each database are shown. […] Cytokine and chemokine secretion of TCC88 was examined and compared upon stimulation with these three different antigens. A specific amount of each cytokine and chemokine (pg ml^−1) was calculated by subtracting the cytokines in the negative control cultures (no peptide control). f, Cytotoxicity of TCC88 against the autologous tumour cell line after stimulation with 2 µM of SIN3A* and HGM3 (data represent the mean percentage of two replicate wells). E:T, effector to target. g, TCC88 was tested with HGM3 (10 µM) or SIN3A* (10 µM) peptides or both together (each 10 µM), and ^3H-thymidine incorporation was measured after 3 days (data represent the mean SI value of three replicate wells ± s.e.m.). Also see Extended Data Figs. 3 and 4. Source data […]

TCC75 = assay: Cytokine/chemokine secretion of TCC75; type: cell-based, human; design: IL-1α / IL-1β / IL-2 / IL-3 / IL-4 / IL-5 / IL-6 / IL-7 / IL-10 / IL-13 / IL-15 / IL-17A / IL-33 / TNF-α: unit not given here; conditions: TCC75, sheet e

For Ac-QPVEFNHAIHYVN-NH2 [SIN3A*], the “cytotoxic activity against autologous glioblastoma cells (in words)” value [1] was “comparable”, the CCL2/MCP-1 (TCC75) was 15.01 and the CCL3/MIP-1α (TCC75) was 1946.52. It also gave a CCL4/MIP-1β (TCC75) of 6778.88, a CCL11/Eotaxin (TCC75) of 4.69 and a CCL19/MIP-3β (TCC75) of 3.33. For the same substance, the CCL20/MIP-3α (TCC75) was 6.39, the “CD40 Ligand” value (TCC75) was 608.52 and the CXCL1/GROα (TCC75) was 9.62. The CXCL2/GROβ (TCC75) was 35.12, the CXCL8/IL-8 (TCC75) was 0 and the CXCL10/IP-10 (TCC75) was 40.51. For the same substance, the “Flt-3 Ligand” value (TCC75) was 43.9, the Fractalkine (TCC75) was 194.12 and the GM-CSF (TCC75) was 3130.41. For the same substance, the “Granzyme B” value (TCC75) was 1085.42, the IFN-α (TCC75) was 4.79 and the IFN-γ (TCC75) was 479.21. It also gave an IL-1rα (TCC75) of 0, an IL-1α (TCC75) of 6.12 and an IL-1β (TCC75) of 7.45. It also gave an IL-2 (TCC75) of 555.39, an IL-3 (TCC75) of 138.37 and an IL-4 (TCC75) of 73.09. It also gave an IL-5 (TCC75) of 13.91, an IL-6 (TCC75) of 139.59 and an IL-7 (TCC75) of 1.11. For the same substance, the IL-10 (TCC75) was 887.25, the IL-12p70 (TCC75) was 22.92 and the IL-13 (TCC75) was 233.15. For the same substance, the IL-15 (TCC75) was 1.05, the IL-17A (TCC75) was 0.99 and the IL-17E/IL-25 (TCC75) was 3.22. It also gave an IL-33 (TCC75) of 3.72, an RANTES (TCC75) of 1598.25 and a TNF-α (TCC75) of 5169.38.
